Measured values taken from article PMC4551390 (Leukemia, 2015).

Experiments:
bcl-2 = experiment: Western blot protein expression in patient samples; format: in vivo, human; conditions: 2 and 4 hours of treatment vs pretreatment
[1] = Plasma pharmacokinetics after 2-hr IV infusion; conditions: for AUC / Cmax / half-life: human, plasma, intravenous; for AUC / Cmax: Mean
XIAP = experiment: Western blot protein expression in patient samples; format: in vivo, human; conditions: 2 and 4 hours of treatment vs pretreatment
tumor FDG uptake (SUV) = experiment: FDG PET/CT tumor metabolic response; format: in vivo, human; conditions: Baseline vs Cycle 1 Day 22; 29 subjects scanned, 4 not evaluable

Compound: CCc1cnn2c(NCc3ccc[n+]([O-])c3)cc(N3CCCC[C@H]3CCO)nc12 [Dinaciclib]
- BCL2 protein level (bcl-2): no significant change
- CL, Mean ([1]; Day 1, 5 mg/m^2): 26.2 L/hr/m2
- Vd, Mean ([1]; Day 1, 5 mg/m^2): 92.8 L/m2
- CL, Mean ([1]; Day 1, 7 mg/m^2): 17.3 L/hr/m2
- Vd, Mean ([1]; Day 1, 7 mg/m^2): 66.2 L/m2
- CL, Mean ([1]; Day 1, 10 mg/m^2): 19.9 L/hr/m2
- Vd, Mean ([1]; Day 1, 10 mg/m^2): 81.8 L/m2
- CL, Mean ([1]; Day 1, 14 mg/m^2): 18.1 L/hr/m2
- Vd, Mean ([1]; Day 1, 14 mg/m^2): 74.4 L/m2
- CL, Mean ([1]; Day 1, 17 mg/m^2): 13.2 L/hr/m2
- Vd, Mean ([1]; Day 1, 17 mg/m^2): 55.9 L/m2
- CL, Mean ([1]; Day 15, 5 mg/m^2): 16.1 L/hr/m2
- Vd, Mean ([1]; Day 15, 5 mg/m^2): 60.3 L/m2
- CL, Mean ([1]; Day 15, 7 mg/m^2): 23.8 L/hr/m2
- Vd, Mean ([1]; Day 15, 7 mg/m^2): 79.5 L/m2
- CL, Mean ([1]; Day 15, 10 mg/m^2): 16.8 L/hr/m2
- Vd, Mean ([1]; Day 15, 10 mg/m^2): 68.4 L/m2
- CL, Mean ([1]; Day 15, 14 mg/m^2): 17 L/hr/m2
- Vd, Mean ([1]; Day 15, 14 mg/m^2): 71.4 L/m2
- CL, Mean ([1]; Day 15, 17 mg/m^2): 13.8 L/hr/m2
- Vd, Mean ([1]; Day 15, 17 mg/m^2): 58.9 L/m2
- increases in exposure (Cmax and AUC) ([1]; at 17 mg/m^2): greater than dose-proportional
- AUC ([1]; 5 mg/m2, AUC(I), Day 1, 5 mg/m^2): 191 ng·h/mL
- AUC ([1]; 5 mg/m2, AUC(I), Day 15, 5 mg/m^2): 310 ng·h/mL
- Cmax ([1]; 5 mg/m2, Cmax, Day 1, 5 mg/m^2): 95.4 ng/mL
- Cmax ([1]; 5 mg/m2, Cmax, Day 15, 5 mg/m^2): 150 ng/mL
- half-life ([1]; 5 mg/m2, T1/2, Mean, Day 1, 5 mg/m^2): 2.45 h
- half-life ([1]; 5 mg/m2, T1/2, Mean, Day 15, 5 mg/m^2): 2.5 h
- AUC ([1]; 7 mg/m2, AUC(I), Day 1, 7 mg/m^2): 403 ng·h/mL
- AUC ([1]; 7 mg/m2, AUC(I), Day 15, 7 mg/m^2): 294 ng·h/mL
- Cmax ([1]; 7 mg/m2, Cmax, Day 15, 7 mg/m^2): 157 ng/mL
- half-life ([1]; 7 mg/m2, T1/2, Mean, Day 15, 7 mg/m^2): 2.31 h
- AUC ([1]; 10 mg/m2, AUC(I), Day 1, 10 mg/m^2): 501 ng·h/mL
- AUC ([1]; 10 mg/m2, AUC(I), Day 15, 10 mg/m^2): 592 ng·h/mL
- Cmax ([1]; 10 mg/m2, Cmax, Day 1, 10 mg/m^2): 277 ng/mL
- Cmax ([1]; 10 mg/m2, Cmax, Day 15, 10 mg/m^2): 299 ng/mL
- half-life ([1]; 10 mg/m2, T1/2, Mean, Day 1, 10 mg/m^2): 2.85 h
- half-life ([1]; 10 mg/m2, T1/2, Mean, Day 15, 10 mg/m^2): 2.82 h
- AUC ([1]; 14 mg/m2, AUC(I), Day 1, 14 mg/m^2): 775 ng·h/mL
- AUC ([1]; 14 mg/m2, AUC(I), Day 15, 14 mg/m^2): 827 ng·h/mL
- Cmax ([1]; 14 mg/m2, Cmax, Day 1, 14 mg/m^2): 404 ng/mL
- Cmax ([1]; 14 mg/m2, Cmax, Day 15, 14 mg/m^2): 428 ng/mL
- half-life ([1]; 14 mg/m2, T1/2, Mean, Day 1, 14 mg/m^2): 2.85 h
- AUC ([1]; 17 mg/m2, AUC(I), Day 1, 17 mg/m^2): 1290 ng·h/mL
- AUC ([1]; 17 mg/m2, AUC(I), Day 15, 17 mg/m^2): 1260 ng·h/mL
- Cmax ([1]; 17 mg/m2, Cmax, Day 1, 17 mg/m^2): 624 ng/mL
- Cmax ([1]; 17 mg/m2, Cmax, Day 15, 17 mg/m^2): 634 ng/mL
- half-life ([1]; 17 mg/m2, T1/2, Mean, Day 15, 17 mg/m^2): 2.95 h
- accumulation in plasma ([1]; weekly 2-hour IV infusion): did not accumulate
- XIAP protein level (XIAP): no significant change
- PET non-responders (tumor FDG uptake (SUV)): 10
- PET responders (30% or more decrease in SUV) (tumor FDG uptake (SUV)): 15
